Key:
MCF-7 cells = experiment: Cell viability assay, MCF-7 cells (CellTiter-Glo, 168 h); format: cell-based; settings: Homo sapiens, MCF7
Experimental: An in vitro cell viability assay was conducted using some Example compounds following the steps below:
1. After recovery, MCF-7 cells (obtained from the Shanghai Cell Bank of the Chinese Academy of Sciences) were cultured at 37° C., 5% CO2, and 95% humidity.
2. 8 compound solutions at different concentrations were prepared for each Example compound. 50 μL of the compound solution at each concentration was added to a 96-well black plate.
3. The cell concentration was adjusted to about 30,000 cells/mL. 100 μL of the cell suspension was added to the 96-well plate, and mixed well to a final cell density of about 3,000 cells/well.
4. The 96-well plate was incubated at 37° C., 5% CO2, and 95% humidity for 168 h, i.e., 7 days.
5. The cell survival rate was measured by the method of CellTiter-Glo® Luminescent Cell Viability Assay (Promega, Cat #G7572). The fluorescence data were read on a microplate reader (EnVision™, a multi-function microplate detector, PerkinElmer).
6. The obtained fluorescence data were analyzed using the GraphPad Prism software. The cell survival rate was calculated for each Example compound at each concentration, and the IC50 interval of each Example compound was determined.

CDK6/CyclinD1 = target: T1, CDK6/CyclinD1 (Homo sapiens, UniProt Q00534); experiment: In vitro cell-free CDK6/CyclinD1 kinase activity assay (TR-FRET); format: biochemical; settings: ATP at Km
T1 construct: purchased Carna 04-114
Experimental: It should be noted that the assay can also be conducted by a similar method. The assay steps in this Test Example are as follows:
The CDK6/CyclinD1 kinase activity was determined using a time-resolved fluorescence resonance energy transfer (TR-FRET) method. Measurements were performed in a reaction volume of 20 μL using 384-well assay plates. […] The reaction was stopped by adding a mixture of a peptide antibody (trade name: Cisbio, product No. 64CUSKAY) and Sa-XL665 (trade name: Cisbio, product No. 610SAXLB) diluted in HTRF KinEASE detection buffer (trade name: Cisbio, product No. 62SDBRDF, containing EDTA). After the mixture was incubated for 1 hour at room temperature, the plate was read. The TR-FRET signal was measured on a multimode plate reader (EnVision™, a multi-function microplate detector, PerkinElmer) at an excitation wavelength (λEx) of 330 nm and detection wavelengths (λEm) of 615 and 665 nm. The activity was determined by the ratio of fluorescence at 665 nm to that at 615 nm. For each compound, the enzyme activities of different concentrations of the compound were measured to determine IC50. The negative control contained no inhibitor. Two no-enzyme controls were used to determine baseline fluorescence levels. IC50 was obtained by fitting using the GraphPad 6.02 software.
8-10 concentrations were prepared for each compound, and formulated in DMSO. The stock concentration was 200× the working concentration. For example, if the working concentration was 100 nM, the corresponding concentration of the formulated stock solution was 20 μM.
In the analysis of in vitro inhibitory activity on CDK kinase, the IC50 value of each of the Example compounds and Reference Example compounds was determined.

T1 sequence (Q00534 whole entry): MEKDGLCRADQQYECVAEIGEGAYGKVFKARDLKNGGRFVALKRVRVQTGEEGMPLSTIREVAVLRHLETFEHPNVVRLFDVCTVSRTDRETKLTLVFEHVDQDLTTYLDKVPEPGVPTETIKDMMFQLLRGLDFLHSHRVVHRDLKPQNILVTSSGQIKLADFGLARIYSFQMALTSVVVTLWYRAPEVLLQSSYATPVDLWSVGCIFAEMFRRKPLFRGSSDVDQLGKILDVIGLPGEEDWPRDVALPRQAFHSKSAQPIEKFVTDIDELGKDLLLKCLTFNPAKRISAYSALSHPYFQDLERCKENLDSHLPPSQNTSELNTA
T1 sequence (P24385 whole entry partner): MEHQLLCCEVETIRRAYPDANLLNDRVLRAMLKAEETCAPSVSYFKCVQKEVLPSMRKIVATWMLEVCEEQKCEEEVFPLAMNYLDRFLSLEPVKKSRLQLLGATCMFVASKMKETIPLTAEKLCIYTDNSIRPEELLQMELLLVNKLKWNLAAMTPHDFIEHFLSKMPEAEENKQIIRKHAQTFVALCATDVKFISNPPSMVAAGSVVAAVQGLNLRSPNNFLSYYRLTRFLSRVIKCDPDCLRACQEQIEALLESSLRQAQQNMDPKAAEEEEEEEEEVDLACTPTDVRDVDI

| Compound | IC50 (MCF-7 cells) [µM] | IC50 (CDK6/CyclinD1) [µM] |
| --- | --- | --- |
| C1=C(c2ccc3cnc(Nc4ccc(N5CCNCC5)cc4)nn23)CCC1 [Example 4] | < 0.5 | 0.1 to 1 |
| CN1CCN(c2ccc(Nc3ncc4ccc(C5=CCCC5)n4n3)cc2)CC1 [Example 5] | < 0.5 | 0.1 to 1 |
| N#Cc1cc2cnc(Nc3ccc(N4CCNCC4)cc3)nn2c1-c1cccc2cccnc12 [Example 15] | < 0.5 | 0.1 to 1 |
| Cc1noc(C)c1-c1cc2cnc(Nc3ccc(N4CCNCC4)cn3)nn2c1-c1ccc(F)cc1 [Example 20] | 0.5 to 2.5 | 0.1 to 1 |
| Cc1noc(C)c1-c1cc2cnc(Nc3ccc(N4CCNCC4)cn3)nn2c1C1=CCCC1 [Example 21] | 0.5 to 2.5 | 0.1 to 1 |
| Cc1nn(C)cc1-c1cc2cnc(Nc3ccc(N4CCNCC4)cn3)nn2c1C1=CCCC1 [Example 23] | < 0.5 | 0.1 to 1 |
| N#Cc1cc2cnc(Nc3ccc(N4CCNCC4)cn3)nn2c1-c1cccnc1 [Example 27] | 2.5 to 10 | 0.1 to 1 |
| N#Cc1cc2cnc(Nc3ccc(N4CCNCC4)cn3)nn2c1C1=CCC(=O)CC1 [Example 30] | 2.5 to 10 | 0.1 to 1 |
| CN(C)C(=O)c1cc2cnc(Nc3ccc(N4CCC5(CC4)CC5)cn3)nn2c1C1=CCCC1 [Example 35] | 0.5 to 2.5 | 0.1 to 1 |
| CN(C)C(=O)c1cc2cnc(Nc3ccc(N4CCNCC4)cn3)nn2c1-c1cccnc1 [Example 36] |  | 0.1 to 1 |
| CN(C)C(=O)c1cc2cnc(Nc3ccc(N4CCC5(CC4)OCCO5)cn3)nn2c1C1=CCCC1 [Example 37] | 0.5 to 2.5 | < 0.1 |
| CN(C)C(=O)c1cc2cnc(Nc3ccc(N4CCC5(CC4)COC5)cn3)nn2c1C1=CCCC1 [Example 38] | < 0.5 | < 0.1 |
| CN(C)C(=O)c1cc2cnc(Nc3ccc(N4CC5(CCNC5)C4)cn3)nn2c1C1=CCCC1 [Example 39] | < 0.5 | < 0.1 |
| CN(C)C(=O)c1cc2cnc(Nc3ccc(N4CC5(CNC5)C4)cn3)nn2c1C1=CCCC1 [Example 40] | < 0.5 | < 0.1 |
| CN(C)C(=O)c1cc2cnc(Nc3ccc(N4CCC5(CC4)CNC5)cn3)nn2c1C1=CCCC1 [Example 41] | < 0.5 | < 0.1 |
| COc1ccc(-c2c(C(=O)N(C)C)cc3cnc(Nc4ccc(N5CCNCC5)cn4)nn23)cc1 [Example 42] | < 0.5 | < 0.1 |

| Compound | IC50 (MCF-7 cells) [µM] | IC50 (CDK6/CyclinD1) [µM] |
| --- | --- | --- |
| CN(C)C(=O)c1cc2cnc(Nc3ccc(N4CCC5(CCNCC5)C4)cn3)nn2c1-c1ccc(Cl)cc1 [Example 43] | 0.5 to 2.5 | < 0.1 |
| COCCOc1ccc(-c2c(C(=O)N(C)C)cc3cnc(Nc4ccc(N5CCC6(CC5)CNC6)cn4)nn23)cc1 [Example 48] |  | < 0.1 |
| CN(C)C(=O)c1cc2cnc(Nc3ccc(N4CCNCC4)cn3)nn2c1-c1cnn(C)c1 [Example 56] |  | 0.1 to 1 |
| CN(C)C(=O)c1cc2cnc(Nc3ccc(N4CC5(CNC5)C4)cn3)nn2c1-c1ccncc1 [Example 61] |  | < 0.1 |
| COc1cc(F)ccc1-c1c(C(=O)N(C)C)cc2cnc(Nc3ccc(N4CCC5(CC4)CNC5)cn3)nn12 [Example 62] |  | 0.1 to 1 |
| CN(C)C(=O)c1cc2cnc(Nc3ccc(N4CCC5(CC4)CNC5)cn3)nn2c1-c1ccncc1 [Example 63] |  | < 0.1 |
| CN(C)C(=O)c1cc2cnc(Nc3ccc(N4CCC5(CC4)CNC5)cn3)nn2c1-c1cnn(C)c1 [Example 64] |  | 0.1 to 1 |
| CN(C)C(=O)c1cc2cnc(Nc3ccc(N4CC5(CNC5)C4)cn3)nn2c1-c1cnn(C)c1 [Example 66] |  | < 0.1 |
| Cc1nn(C)cc1-c1c(C(=O)N(C)C)cc2cnc(Nc3ccc(N4CC5(CNC5)C4)cn3)nn12 [Example 67] |  | 0.1 to 1 |
| CN(C)C(=O)c1cc2cnc(Nc3ccc(N4CC5(CCNC5)C4)cn3)nn2c1-c1cnn(C)c1 [Example 70] |  | < 0.1 |
| Cn1cc(-c2cc3cnc(Nc4ccc(N5CCNCC5)cn4)nn3c2C2=CCCC2)ncc1=O [Example 77] |  | 0.1 to 1 |
| Cn1cc(-c2cc3cnc(Nc4ccc(N5CCNCC5)cn4)nn3c2N2CCOCC2)cn1 [Example 79] |  | < 0.1 |
| Cn1ccc(-c2cc3cnc(Nc4ccc(N5CCNCC5)cn4)nn3c2C2=CCCC2)cc1=O [Example 80] |  | < 0.1 |
| COc1ccc(-c2c(-c3cnn(C)c3)c(-c3ccc(OC)cc3)n3nc(Nc4ccc(N5CCNCC5)cn4)ncc23)cc1 [Reference Example 129, reference compound] |  | > 3 |
| Cn1cc(-c2c(C3=CCCC3)c3cnc(Nc4ccc(N5CCNCC5)cn4)nn3c2C2=CCCC2)cn1 [Reference Example 130, reference compound] |  | 1 to 3 |

Results, then the molecule that gave them:

| IC50 (MCF-7 cells) [µM] | IC50 (CDK6/CyclinD1) [µM] | Compound |
| --- | --- | --- |
| < 0.5 | < 0.1 | N#Cc1cc2cnc(Nc3ccc(N4CCNCC4)cc3)nn2c1Br [Example 1] |
| < 0.5 | < 0.1 | N#Cc1cc2cnc(Nc3ccc(N4CCNCC4)cc3)nn2c1C1=CCCC1 [Example 2] |
| < 0.5 | < 0.1 | N#Cc1cc2cnc(Nc3ccc(N4CCNCC4)cc3)nn2c1-c1ccccc1 [Example 3] |
| < 0.5 | < 0.1 | N#Cc1cc2cnc(Nc3ccc(N4CCNCC4)cc3)nn2c1N1CCCC1 [Example 6] |
| < 0.5 | < 0.1 | N#Cc1cc2cnc(Nc3ccc(N4CCNCC4)cc3)nn2c1-c1ccc(Cl)cc1 [Example 7] |
| 0.5 to 2.5 | < 0.1 | Cn1cc(-c2c(Br)c3cnc(Nc4ccc(N5CCNCC5)cc4)nn3c2Br)cn1 [Example 8] |
| < 0.5 | < 0.1 | COc1ccc(-c2c(C#N)cc3cnc(Nc4ccc(N5CCNCC5)cc4)nn23)cc1 [Example 9] |
| < 0.5 | < 0.1 | COc1ccccc1-c1c(C#N)cc2cnc(Nc3ccc(N4CCNCC4)cc3)nn12 [Example 10] |
| < 0.5 | < 0.1 | COc1cc(F)ccc1-c1c(C#N)cc2cnc(Nc3ccc(N4CCNCC4)cc3)nn12 [Example 11] |
| < 0.5 | < 0.1 | N#Cc1cc2cnc(Nc3ccc(N4CCNCC4)cc3)nn2c1-c1cccnc1 [Example 12] |
| < 0.5 | < 0.1 | N#Cc1cc2cnc(Nc3ccc(N4CCNCC4)cc3)nn2c1-c1ccc(F)cc1 [Example 13] |
| < 0.5 | < 0.1 | N#Cc1cc2cnc(Nc3ccc(N4CCNCC4)cc3)nn2c1-c1ccc2ccccc2c1 [Example 14] |
| 0.5 to 2.5 | < 0.1 | N#Cc1cc2cnc(Nc3ccc(N4CCNCC4)cc3)nn2c1N1CCC2(CCNCC2)CC1 [Example 16] |
| < 0.5 | < 0.1 | N#Cc1cc2cnc(Nc3ccc(N4CCNCC4)cc3)nn2c1N1CCC2(CCCCC2)C1 [Example 17] |
| < 0.5 | < 0.1 | COc1ccc(-c2c(C#N)cc3cnc(Nc4ccc(N5CCNCC5)cc4)nn23)cn1 [Example 18] |
| 0.5 to 2.5 | < 0.1 | COc1ccc(-c2c(-c3cnn(C)c3)cc3cnc(Nc4ccc(N5CCNCC5)cn4)nn23)cc1 [Example 19] |
| < 0.5 | < 0.1 | N#Cc1cc2cnc(Nc3ccc(N4CCNCC4)cn3)nn2c1-c1ccc(Cl)cc1 [Example 24] |
| < 0.5 | < 0.1 | N#Cc1cc2cnc(Nc3ccc(N4CCNCC4)cn3)nn2c1C1=CCCC1 [Example 25] |
| < 0.5 | < 0.1 | N#Cc1cc2cnc(Nc3ccc(N4CCNCC4)cn3)nn2c1N1CCCC1 [Example 26] |
| < 0.5 | < 0.1 | CN(C)C(=O)c1cc2cnc(Nc3ccc(N4CCNCC4)cn3)nn2c1C1=CCCC1 [Example 28] |
| < 0.5 | < 0.1 | CN(C)C(=O)c1cc2cnc(Nc3ccc(N4CCNCC4)cn3)nn2c1N1CCCC1 [Example 29] |
| < 0.5 | < 0.1 | CN(C)C(=O)c1cc2cnc(Nc3ccc(N4CCNCC4)cn3)nn2c1N1CCCCC1 [Example 31] |
| < 0.5 | < 0.1 | CN(C)C(=O)c1cc2cnc(Nc3ccc(N4CCNCC4)cn3)nn2c1-c1ccc(F)cc1 [Example 32] |
| < 0.5 | < 0.1 | CN(C)C(=O)c1cc2cnc(Nc3ccc(N4CCC5(CCNCC5)CC4)cn3)nn2c1C1=CCCC1 [Example 33] |
| < 0.5 | < 0.1 | CN(C)C(=O)c1cc2cnc(Nc3ccc(N4CCNCC4)cn3)nn2c1-c1ccc(Cl)cc1 [Example 34] |

— patent US20230002393A1, “CDK KINASE INHIBITOR” (BEIJING BENICALL BIOTECH CO., LTD., priority 2019, published 2023)
